Reference: US5723458A, “Hypolipidaemic compounds” (Glaxo Wellcome Inc., priority 1993, dated 1998)

System: rat distal ileal brush border membrane vesicles (active, sodium-dependent 3H taurocholate uptake)
Experiment: In vitro inhibition of bile acid uptake
Type: biochemical
Conditions: 30 seconds at 24° C., versus control active uptake
Experimental: In vitro inhibition of bile acid uptake
Freshly prepared rat distal ileal brush border membrane vesicles (about […] vesicle protein) were incubated for 30 seconds at 24° C. in an incubation mixture comprising […] ^3 H taurocholate, 100 mM NaCl (or KCl) and 80 mM mannitol in 20 mM Hepes Tris pH 7.4. Each test compound was dissolved in ethanol (or water) and then diluted with incubation mixture to an ethanol concentration of not more than 1% v/v. The incubation was terminated by rapid dilution and filtration and the filter washed with an ice-cold isotonic sodium-free buffer.
The uptake of ^3 H taurocholate was measured by the radioactivity remaining on the filter and converted to pmoles/mg vesicle protein. The active, ie sodium-dependent, uptake was obtained by subtracting the passive uptake measured in 100 mM KCl from the total uptake measured in 100 mM NaCl. The active uptake for each test compound was compared with a control active uptake and the results expressed as % inhibition of bile acid uptake.
Data is given below for % inhibition of bile acid uptake at various concentrations of compounds of the invention.

Row | SMILES | % inhibition of bile acid uptake (3 μM test compound) [%] | % inhibition of bile acid uptake (10 μM test compound) [%] | % inhibition of bile acid uptake (0.3 μM test compound) [%] | % inhibition of bile acid uptake (1 μM test compound) [%]
1 | CC[C@@H](O)C[C@@]1(CC)CS(=O)(=O)c2ccccc2[C@H](c2ccccc2)N1 (racemic) [Example 1, (+-)-trans-3-ethyl-2,3,4,5-tetrahydro-3-((2R)-2hydroxybutyl)-5-phenyl-1,4-benzothiazepine 1,1-dioxide] | 36 | 69 | – | –
2 | CC[C@@H](O)C[C@@]1(CC)CS(=O)(=O)c2cc(OC)ccc2[C@H](c2ccccc2)N1 (racemic) [Example 2] | 60 | 83 | 22 | 44
3 | CC[C@]1(C[C@H](O)CC(F)(F)F)CS(=O)(=O)c2ccccc2[C@H](c2ccccc2)N1 (racemic) [Example 11, (+-)-trans-1-(3-ethyl-2,3,4,5-tetrahydro-5-phenyl-1,4-benzothiazepin-3-yl)-4,4,4-trifluoro-(2S)-2-butanol-S,S-dioxide] | 63 | 85 | 13 | 31
4 | CC[C@]1(C[C@H](O)CC(F)(F)F)CS(=O)(=O)c2ccc(OC)cc2[C@H](c2ccccc2)N1 (racemic) [Example 12, (+-)-trans-1-(3-ethyl-2,3,4,5-tetrahydro-7-methoxy-5-phenyl-1,4-benzothiazepin-3-yl)-4,4,4-trifluoro-(2S)-2-butanol-S,S-dioxide] | 86 | 95 | 47 | 72
5 | CCC1NC(c2ccc(O)cc2)c2ccccc2S(=O)(=O)C1C[C@@H](O)CC (mixture of isomers) [Example 24, (+-)-Trans-3-Ethyl-2,3,4,5-tetrahydro-2-(2(S)-2-hydroxybutyl)-5-(4-hydroxyphenyl)-1,4-benzothiazepine 1,1-dioxide] | – | 23 | – | –
